pIC50: −log10 of the molar value. “Also recorded” adds a separate entry of the source.
What was measured:
MPTP-treated mice = conditions: oral administration; ref Liang et al., 2007; cited from earlier work
[1] = test system: respiring brain mitochondria; conditions: ref Castello et al., 2008; cited from earlier work
SOD activity assay = format: biochemical; conditions: unit = amount that inhibits one-half the formation of adrenochrome at pH 10.2
H2O2 scavenging assay = format: biochemical; conditions: read-out: H2O2 IC50; concentration that scavenged 50% of H2O2; 50 µM H2O2, 1 minute
[2] = Brain manganese levels by ICPMS after 7 days daily dosing; format: in vivo, C57BL/6 mice; conditions: 15 mg/kg i.p. daily for 7 days
C57BL/6 mice = assay: Open field test and accelerated rotarod test; format: in vivo; conditions: 15 mg/kg i.p. daily for 7 days

| SMILES | effect on MPTP-induced neurotoxicity (in words) (MPTP-treated mice) | H2O2 scavenging in respiring brain mitochondria (in words) [1] | SOD Activity (SOD activity assay) [U/mg] | pIC50 (H2O2 scavenging assay) | brain manganese levels vs vehicle (in words) [2] | increase of brain manganese levels [2] | neurobehavioral changes (open field, rotarod) vs vehicle (C57BL/6 mice) |
| --- | --- | --- | --- | --- | --- | --- | --- |
| COC(=O)c1c2nc(c(C(F)(F)F)c3ccc([n-]3)c(C(=O)OC)c3nc(c(C(F)(F)F)c4ccc1[n-]4)C=C3)C=C2.[Cl-].[Mn+3] [AEOL 11207] | inhibited MPTP-induced neurotoxicity | potent H2O2 scavengers | 124 | 6.98 |  |  |  |
| [Cl][Mn][Cl] [MnCl2] |  |  |  |  | increased brain manganese levels significantly | ~ 10 fold | significant deficit in movement; also recorded: significant rotarod deficit |

Source: publication PMC5704913 (Toxicology and applied pharmacology, 2017)
